Experimental data reported in article PMC8002023, “3D Pharmacophore-Based Discovery of Novel KV10.1 Inhibitors with Antiproliferative Activity” (Cancers, 2021).
Read-outs that look alike come from different tables or passages of the source.

Tests used:
[1] = molecular target: T1, hERG (Homo sapiens, UniProt Q12809); assay: Whole-cell patch clamp on stably transfected HEK-293 cells, hERG tail current; assay type: cell-based; details: peak tail current at −40 mV after +20 mV
T1 construct: expressed in transfected cells
T1 sequence (Q12809 whole entry): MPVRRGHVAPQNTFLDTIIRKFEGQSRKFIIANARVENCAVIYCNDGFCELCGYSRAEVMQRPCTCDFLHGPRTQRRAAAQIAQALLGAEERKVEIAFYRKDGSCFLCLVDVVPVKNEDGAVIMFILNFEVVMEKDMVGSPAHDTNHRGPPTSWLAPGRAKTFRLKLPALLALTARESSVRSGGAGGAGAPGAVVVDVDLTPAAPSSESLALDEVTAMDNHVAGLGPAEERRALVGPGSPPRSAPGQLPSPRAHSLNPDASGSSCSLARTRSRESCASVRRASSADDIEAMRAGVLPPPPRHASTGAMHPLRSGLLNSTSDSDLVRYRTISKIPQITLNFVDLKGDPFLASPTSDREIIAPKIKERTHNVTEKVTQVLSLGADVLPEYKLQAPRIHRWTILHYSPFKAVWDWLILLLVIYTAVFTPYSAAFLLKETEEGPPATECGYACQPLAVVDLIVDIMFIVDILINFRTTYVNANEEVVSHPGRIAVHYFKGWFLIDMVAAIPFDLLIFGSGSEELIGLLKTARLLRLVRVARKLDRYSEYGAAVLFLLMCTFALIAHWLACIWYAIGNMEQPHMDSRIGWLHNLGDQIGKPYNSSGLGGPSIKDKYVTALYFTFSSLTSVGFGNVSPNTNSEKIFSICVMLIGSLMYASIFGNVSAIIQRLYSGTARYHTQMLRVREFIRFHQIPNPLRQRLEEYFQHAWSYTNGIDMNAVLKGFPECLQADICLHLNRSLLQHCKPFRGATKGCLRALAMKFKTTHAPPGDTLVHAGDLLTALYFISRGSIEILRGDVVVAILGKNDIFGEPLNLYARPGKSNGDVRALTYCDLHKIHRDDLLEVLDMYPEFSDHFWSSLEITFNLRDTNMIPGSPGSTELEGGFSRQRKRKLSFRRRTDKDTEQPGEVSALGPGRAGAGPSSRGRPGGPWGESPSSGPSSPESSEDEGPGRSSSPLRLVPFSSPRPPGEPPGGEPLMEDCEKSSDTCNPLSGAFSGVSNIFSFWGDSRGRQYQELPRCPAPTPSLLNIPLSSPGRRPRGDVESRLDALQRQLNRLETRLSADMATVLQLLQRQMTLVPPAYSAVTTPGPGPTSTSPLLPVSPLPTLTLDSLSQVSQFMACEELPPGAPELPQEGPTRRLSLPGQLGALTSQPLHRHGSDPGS
Protocol: (§1) Whole-cell patch clamp experiments were performed on stably transfected HEK-293 cells. The cells were grown on fibronectin-coated glass coverslips in DMEM supplemented with 10% FCS and 300 µg/mL Zeocin. Experiments were performed at room temperature under continuous perfusion. The extracellular solution contained (mM) 160 NaCl, 2.5 KCl, 2 CaCl2, 1 MgCl2, 10 Hepes/NaOH, pH 7.4, 8 glucose. For the experiments determining conductance–voltage relationships, tail currents were made visible by substituting 60 mM NaCl by KCl ([…], 100 NaCl). Pipettes were pulled from #1 glass capillaries (WPI) to resistances of 1–3 MΩ when loaded with the intracellular solution (100 KCl, 45 N-methyl-D-glucamine, 10 1,2-bis(o-aminophenoxy)ethane-N,N,N′,N′-tetraacetic acid (BAPTA), 10 Hepes pH 7.35). Data acquisition was performed using a EPC10 Plus amplifier (HEKA Elektronik) and Patch Master software. Drug application was performed using an 8-channel fast solution exchanger (ALA). All compounds were dissolved in DMSO to a final concentration of 10 mM. 0.5% DMSO in extracellular solution served as control. KV10.1 currents were elicited by 500 ms depolarisations to +40 mV under continuous perfusion with the compound-containing or control solution. hERG current amplitudes were measured as the peak tail current during a 4 s repolarization to −40 mV after a depolarising pulse to +20 mV lasting for 2 s.

[2] = test system: Salmonella typhimurium strain TA98; assay: Salmonella/microsomal reverse mutation (Ames) assay, TA98; design: key to bacterial background lawn: slightly reduced bacterial background; moderately reduced bacterial background; extremely reduced bacterial background; bacterial background is absent; details: for mutagenic response: TA98, 0.0158–0.158 mg/plate, −S9 and +S9; for cytotoxic concentration to bacterial strain: TA98, −/+ S9 metabolic activation; for induction factor (IF): IF ≥ 2 positive
Protocol: Mutagenicity of compounds ZVS-08 and 8 was tested with the Salmonella/microsomal reverse mutation (Ames) assay on Salmonella typhimurium strains TA98 and TA100 without and with external metabolic activation according to the OECD guidelines (OECD TG 471) with minor modifications. Briefly, 100 µL of ZVS-08 and 8 (0.158, 0.5, 1.58, 5, 15.8, and 50 mg/mL corresponding to the final concentration of 0.0158, 0.05, 0.158, 0.5, 1.58, and 5 mg/plate, respectively), […] bacterial culture of S. typhimurium (overnight culture at 37 °C), and […] of phosphate buffer (for assays without metabolic activation) or 10% S9 mix (for assays with metabolic activation) were added to 2 mL of molten top agar (supplemented with histidine/biotin, final concentration 0.05 mM), gently mixed and poured onto minimal agar plates. The number of His+ revertants was counted after 48 h (TA100) and 72 h (TA98) of incubation at 37 °C. Three plates were used per treatment point. The mutagenic potential of the compounds was expressed as an induction factor (IF), where IF = (number of revertants in the presence of the compound)/(number of revertants in solvent control). Additionally, each plate was checked for possible toxic effects of tested compounds. […] 4-nitroquinoline- N-oxide (4-NQNO; 0.25 μg/plate) for TA98 and sodium azide (NaN3; 0.25 μg/plate) for TA100 were used as positive controls without S9 metabolic activation, while benzo[a]pyrene (B[a]P; 2.5 μg/plate) was used as positive controls for both bacterial strains with S9 metabolic activation.

[3] = molecular target: T2, KV10.1 (Homo sapiens, UniProt O95259); assay: Whole-cell patch clamp on HEK-293 cells stably expressing KV10.1; assay type: cell-based
T2 construct: expressed in transfected cells
T2 sequence (O95259 1-962 isoform O95259-2): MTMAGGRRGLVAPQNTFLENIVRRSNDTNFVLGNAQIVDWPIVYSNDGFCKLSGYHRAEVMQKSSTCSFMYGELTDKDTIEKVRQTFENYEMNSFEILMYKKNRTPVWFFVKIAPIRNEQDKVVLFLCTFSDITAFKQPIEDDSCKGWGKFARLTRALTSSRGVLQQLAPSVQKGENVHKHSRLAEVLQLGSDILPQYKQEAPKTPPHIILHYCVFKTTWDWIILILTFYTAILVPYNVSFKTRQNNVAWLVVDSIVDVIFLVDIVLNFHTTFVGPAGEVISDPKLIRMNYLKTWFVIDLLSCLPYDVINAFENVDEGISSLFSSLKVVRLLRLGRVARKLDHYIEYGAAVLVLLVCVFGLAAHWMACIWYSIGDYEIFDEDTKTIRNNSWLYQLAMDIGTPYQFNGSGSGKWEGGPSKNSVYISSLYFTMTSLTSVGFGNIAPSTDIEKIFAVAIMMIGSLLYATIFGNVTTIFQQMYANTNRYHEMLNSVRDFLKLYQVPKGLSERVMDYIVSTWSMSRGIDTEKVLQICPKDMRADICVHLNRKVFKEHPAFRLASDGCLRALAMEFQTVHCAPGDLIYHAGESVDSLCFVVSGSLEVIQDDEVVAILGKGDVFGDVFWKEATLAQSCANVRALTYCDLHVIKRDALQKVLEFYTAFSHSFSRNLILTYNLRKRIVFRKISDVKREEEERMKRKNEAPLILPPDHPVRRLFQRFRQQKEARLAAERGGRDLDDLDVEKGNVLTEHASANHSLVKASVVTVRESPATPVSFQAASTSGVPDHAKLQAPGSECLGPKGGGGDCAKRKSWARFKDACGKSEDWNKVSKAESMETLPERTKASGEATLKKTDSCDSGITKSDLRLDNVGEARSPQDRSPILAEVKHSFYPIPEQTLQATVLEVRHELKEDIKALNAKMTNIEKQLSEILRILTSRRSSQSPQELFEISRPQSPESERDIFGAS
Protocol: as §1
The nine selected in silico hits were tested by manual patch-clamp on a HEK293 cell line stably expressing KV10.1 [33] at a compound concentration of 50 μM (Table 1). Compound activity was tested by determining the current amplitude elicited by repetitive stimuli to +40 mV from a holding potential of −80 mV. […] The hit compound ZVS-08 represents a new structural class of KV10.1 inhibitors with diarylamine structure and has a unique structure among the acquired virtual screening hits. […] The most notable change from the purpurealidin analogues is the replacement of the hydrogen bond acceptor group of the amide bond with the oxygen atom of the nitro group of ZVS-08.

[4] = HEK-293, 500 ms depolarisation to +40 mV, read-out: IC50 Kv10.1

Structure (SMILES): O=[N+]([O-])c1cc(C(F)(F)F)ccc1Nc1ccc(OCC(O)CN2CCOCC2)cc1 (centres unmarked) [Compound 8]
- IC50 [1]: 156 nM
- mutagenic response [2]: no mutagenic response
- cytotoxic concentration to bacterial strain [2]: ≥ 0.5 mg/plate
- IC50 [3, 4]: 1010 nM

Structure (SMILES): CN(C)CC(O)COc1ccc(Nc2ccc(C(F)(F)F)cc2[N+](=O)[O-])cc1 (centres unmarked) [ZVS-08]
- IC50 [1]: 194 nM
- mutagenic response [2]: no mutagenic response
- Average number of revertant colonies (mean ± SD) ([2]; TA98, +S9, 0.0158 mg/plate): 31.00 ± 3.61
- induction factor (IF) ([2]; TA98, +S9, 0.0158 mg/plate): 0.85
- Average number of revertant colonies (mean ± SD) ([2]; TA98, +S9, 0.05 mg/plate): 45.33 ± 8.62
- induction factor (IF) ([2]; TA98, +S9, 0.05 mg/plate): 1.25
- Average number of revertant colonies (mean ± SD) ([2]; TA98, +S9, 0.158 mg/plate): 34.67 ± 14.05
- bacterial background lawn ([2]; TA98, +S9, 0.158 mg/plate): a
- induction factor (IF) ([2]; TA98, +S9, 0.158 mg/plate): 0.95
- Average number of revertant colonies (mean ± SD) ([2]; TA98, +S9, 0.5 mg/plate): 0
- bacterial background lawn ([2]; TA98, +S9, 0.5 mg/plate): b
- Average number of revertant colonies (mean ± SD) ([2]; TA98, +S9, 1.58 mg/plate): 0
- bacterial background lawn ([2]; TA98, +S9, 1.58 mg/plate): d
- Average number of revertant colonies (mean ± SD) ([2]; TA98, +S9, 5 mg/plate): 0
- bacterial background lawn ([2]; TA98, +S9, 5 mg/plate): d
- Average number of revertant colonies (mean ± SD) ([2]; TA98, -S9, 0.0158 mg/plate): 21.67 ± 4.51
- induction factor (IF) ([2]; TA98, -S9, 0.0158 mg/plate): 0.86
- Average number of revertant colonies (mean ± SD) ([2]; TA98, -S9, 0.05 mg/plate): 22.67 ± 8.08
- induction factor (IF) ([2]; TA98, -S9, 0.05 mg/plate): 0.89
- Average number of revertant colonies (mean ± SD) ([2]; TA98, -S9, 0.158 mg/plate): 17.67 ± 3.79
- bacterial background lawn ([2]; TA98, -S9, 0.158 mg/plate): a
- induction factor (IF) ([2]; TA98, -S9, 0.158 mg/plate): 0.70
- Average number of revertant colonies (mean ± SD) ([2]; TA98, -S9, 0.5 mg/plate): 0
- bacterial background lawn ([2]; TA98, -S9, 0.5 mg/plate): c
- Average number of revertant colonies (mean ± SD) ([2]; TA98, -S9, 1.58 mg/plate): 0
- bacterial background lawn ([2]; TA98, -S9, 1.58 mg/plate): d
- Average number of revertant colonies (mean ± SD) ([2]; TA98, -S9, 5 mg/plate): 0
- bacterial background lawn ([2]; TA98, -S9, 5 mg/plate): d
- cytotoxic concentration to bacterial strain [2]: ≥ 0.5 mg/plate
- inhibition at 50 µM ([3]; HEK293, compound concentration 50 μM, stimuli to +40 mV, mean ± standard error, read-out: Effect on Kv10.1 (% Inhibition)): 80.27 ± 0.63%
- IC50 [3, 4]: 3700 nM
- semi-maximal activation (conductance–voltage relationship) ([3]; in the presence of 5 µM ZVS-08, 4.39 ± 1.9 mV in the absence): −29.88 ± 1.8 mV
- IC50 ([3]; same IC50 in presence and absence of 500 nM astemizole, end of 500 ms pulse to +40 mV, read-out: IC50 Kv10.1, competition with astemizole): 1690 nM
- IC50 ([3]; same IC50 in presence and absence of 1 µM mibefradil, end of 500 ms pulse to +40 mV, read-out: IC50 Kv10.1, competition with mibefradil): 1470 nM
